What was measured:
[1] = AUC (0 to infinity) in Sprague-Dawley rat at 30 mg/kg,sc administration; type: ADME, organism-based; details: in vivo
[2] = Half life in Wistar-Han rat at 1 mg/kg,iv administration; type: ADME, organism-based; details: in vivo
[3] = AUC (0 to 24 hrs) in Wistar-Han rat at 1 mg/kg,iv administration; type: ADME, organism-based; details: in vivo
[4] = AUC (0 to 24 hrs) in Wistar rat at 10 mg/kg,po administration; type: ADME, organism-based; details: in vivo
[5] = Drug concentration in choline-deficient high-fat diet induced Wistar-Han rat plasma at sc administration for 6 weeks from period of week 7 to 12 during high-fat diet treatment; type: ADME, organism-based; details: in vivo, 1008 h
[6] = Apparent permeability across basolateral to apical side in dog MDCK-MDR1 cells incubated for 60 mins by HPLC analysis; type: ADME, cell-based, Canis lupus familiaris
[7] = target: T1, Integrin alpha-V/beta-1 (Homo sapiens, UniProt P05556+P06756); assay: Inhibition of recombinant human Integrin alphaVbeta1 using TMB as substrate incubated for 2 hrs in presence of fibronectin by ELISA; type: protein-complex assay
T1 sequence (P05556 21-798 limits assumed): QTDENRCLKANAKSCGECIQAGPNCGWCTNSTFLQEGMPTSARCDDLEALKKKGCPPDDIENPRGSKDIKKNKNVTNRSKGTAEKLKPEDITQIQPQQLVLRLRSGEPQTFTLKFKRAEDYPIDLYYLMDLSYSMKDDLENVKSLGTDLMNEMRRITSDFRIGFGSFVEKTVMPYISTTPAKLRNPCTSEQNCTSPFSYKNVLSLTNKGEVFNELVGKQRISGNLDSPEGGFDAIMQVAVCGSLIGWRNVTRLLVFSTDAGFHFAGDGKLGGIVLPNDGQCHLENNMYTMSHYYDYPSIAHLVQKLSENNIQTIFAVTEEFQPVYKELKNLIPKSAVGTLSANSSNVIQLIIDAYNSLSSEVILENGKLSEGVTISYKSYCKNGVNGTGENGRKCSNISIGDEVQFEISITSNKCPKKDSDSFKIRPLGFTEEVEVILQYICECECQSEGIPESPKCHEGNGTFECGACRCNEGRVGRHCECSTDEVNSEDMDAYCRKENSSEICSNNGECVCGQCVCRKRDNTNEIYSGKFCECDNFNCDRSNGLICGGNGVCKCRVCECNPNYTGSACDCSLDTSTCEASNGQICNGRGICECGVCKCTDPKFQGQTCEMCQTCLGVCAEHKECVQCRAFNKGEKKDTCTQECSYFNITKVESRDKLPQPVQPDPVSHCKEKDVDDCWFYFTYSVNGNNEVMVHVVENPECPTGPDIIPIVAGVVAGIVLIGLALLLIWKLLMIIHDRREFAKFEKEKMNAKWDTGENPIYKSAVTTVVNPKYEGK
T1 sequence (P06756 31-889 limits assumed): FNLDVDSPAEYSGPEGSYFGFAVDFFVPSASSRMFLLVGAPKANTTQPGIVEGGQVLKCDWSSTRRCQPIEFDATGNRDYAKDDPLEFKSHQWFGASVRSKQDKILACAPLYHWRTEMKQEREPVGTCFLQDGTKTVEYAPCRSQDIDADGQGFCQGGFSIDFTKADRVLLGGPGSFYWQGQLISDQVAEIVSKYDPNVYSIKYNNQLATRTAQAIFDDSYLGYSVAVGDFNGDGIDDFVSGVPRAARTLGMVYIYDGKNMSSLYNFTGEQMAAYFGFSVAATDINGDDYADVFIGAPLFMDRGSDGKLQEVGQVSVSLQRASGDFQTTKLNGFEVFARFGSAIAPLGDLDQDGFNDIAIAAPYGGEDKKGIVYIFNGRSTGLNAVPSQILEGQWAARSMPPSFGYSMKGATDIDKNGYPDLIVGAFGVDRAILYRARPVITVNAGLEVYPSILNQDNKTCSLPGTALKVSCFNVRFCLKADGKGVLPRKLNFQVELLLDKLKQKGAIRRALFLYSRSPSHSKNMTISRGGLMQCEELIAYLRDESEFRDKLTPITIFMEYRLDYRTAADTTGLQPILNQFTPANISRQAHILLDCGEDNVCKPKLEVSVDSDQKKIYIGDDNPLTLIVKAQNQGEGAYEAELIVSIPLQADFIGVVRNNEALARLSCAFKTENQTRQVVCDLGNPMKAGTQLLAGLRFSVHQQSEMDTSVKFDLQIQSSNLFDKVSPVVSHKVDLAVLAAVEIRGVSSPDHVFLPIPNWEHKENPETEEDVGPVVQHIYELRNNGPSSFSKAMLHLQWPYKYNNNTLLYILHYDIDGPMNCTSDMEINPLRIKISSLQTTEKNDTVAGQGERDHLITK
T1 sequence (P06756 891-1048 limits assumed): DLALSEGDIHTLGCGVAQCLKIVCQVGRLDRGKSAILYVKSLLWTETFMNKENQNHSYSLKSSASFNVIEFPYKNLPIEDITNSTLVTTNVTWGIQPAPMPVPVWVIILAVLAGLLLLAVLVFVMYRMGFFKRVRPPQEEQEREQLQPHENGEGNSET

[8] = Volume of distribution at steady state in Wistar-Han rat at 1 mg/kg,iv administration; type: ADME, organism-based; details: in vivo, read-out: Vdss
[9] = target: Integrin alpha-V/beta-3 (Homo sapiens, UniProt P05106+P06756); assay: Inhibition of recombinant human Integrin alphaVbeta3 mediated cellular adhesion expressed in HEK cells incubated for 24 hrs in presence of Ca2+ and Mg2+ by real-time cell analysis; type: cell-based
Sequence of Integrin alpha-V/beta-3 (P05106 27-788 limits assumed): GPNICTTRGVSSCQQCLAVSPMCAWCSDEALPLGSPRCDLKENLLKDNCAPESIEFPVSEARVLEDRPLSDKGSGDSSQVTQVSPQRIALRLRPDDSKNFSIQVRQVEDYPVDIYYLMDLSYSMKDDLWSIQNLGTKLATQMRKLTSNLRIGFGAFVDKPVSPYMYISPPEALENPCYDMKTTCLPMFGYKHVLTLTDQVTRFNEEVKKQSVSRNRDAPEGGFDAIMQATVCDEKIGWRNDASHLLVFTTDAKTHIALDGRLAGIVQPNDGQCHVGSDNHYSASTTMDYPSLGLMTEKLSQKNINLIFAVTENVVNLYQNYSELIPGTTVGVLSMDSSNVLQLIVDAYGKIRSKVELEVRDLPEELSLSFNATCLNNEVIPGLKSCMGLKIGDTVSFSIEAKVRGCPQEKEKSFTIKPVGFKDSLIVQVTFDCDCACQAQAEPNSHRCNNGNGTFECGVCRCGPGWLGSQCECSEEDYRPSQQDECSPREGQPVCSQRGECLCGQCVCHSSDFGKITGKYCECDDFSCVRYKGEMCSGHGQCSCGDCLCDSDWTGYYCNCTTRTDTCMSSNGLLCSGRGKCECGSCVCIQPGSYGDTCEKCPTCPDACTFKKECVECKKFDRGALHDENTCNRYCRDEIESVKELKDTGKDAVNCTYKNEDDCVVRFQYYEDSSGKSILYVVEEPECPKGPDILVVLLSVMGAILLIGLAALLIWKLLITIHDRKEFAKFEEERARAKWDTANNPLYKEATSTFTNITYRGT
Sequence of Integrin alpha-V/beta-3 (P06756 31-889 limits assumed): as the sequence (P06756 31-889 limits assumed) above
Sequence of Integrin alpha-V/beta-3 (P06756 891-1048 limits assumed): as the sequence (P06756 891-1048 limits assumed) above

[10] = AUC (0 to 24 hrs) in Sprague-Dawley rat at 30 mg/kg,sc administration; type: ADME, organism-based; details: in vivo
[11] = Half life in Sprague-Dawley rat at 30 mg/kg,sc administration; type: ADME, organism-based; details: in vivo
[12] = Apparent permeability across apical to basolateral side in dog MDCK-MDR1 cells incubated for 60 mins by HPLC analysis; type: ADME, cell-based, Canis lupus familiaris
[13] = AUC (0 to infinity) in Wistar rat at 10 mg/kg,po administration; type: ADME, organism-based; details: in vivo
[14] = Cmax in Sprague-Dawley rat at 30 mg/kg,sc administration; type: ADME, organism-based; details: in vivo
[15] = Tmax in Sprague-Dawley rat at 30 mg/kg,sc administration; type: ADME, organism-based; details: in vivo
[16] = system: Rattus norvegicus; assay: Antifibrotic activity against choline-deficient high-fat diet induced Wistar-Han rat liver fibrosis model assessed as reduction in liver fibrosis at sc administration for 6 weeks from period of week 7 to 12 during high-fat diet treatment by picrosirius red staining based analysis; type: functional, organism-based
[17] = Tmax in Wistar rat at 10 mg/kg,po administration; type: ADME, organism-based; details: in vivo
[18] = Half life in Wistar rat at 10 mg/kg,po administration; type: ADME, organism-based; details: in vivo
[19] = target: T1, Integrin alpha-V/beta-1; assay: Inhibition of recombinant human Integrin alphaVbeta1 mediated cellular adhesion expressed in CHO-B2 cell incubated for 24 hrs in presence of Ca2+ and Mg2+ by real-time cell analysis; type: cell-based
[20] = Oral bioavailability in Wistar rat at 10 mg/kg administration; type: ADME, organism-based; details: in vivo
[21] = target: T1, Integrin alpha-V/beta-1; assay: Inhibition of human Integrin alphaVbeta1 expressed in CHO-B2 cell cocultured with TGF-beta expressing Mv1Lu cells assessed as inhibition of integrin alphaVbeta1 mediated TGF-beta transactivation by luciferase assay; type: cell-based
[22] = target: Integrin alpha-4/beta-1 (Homo sapiens, UniProt P05556+P13612); assay: Inhibition of Integrin alpha4beta1 mediated cellular adhesion in human Jurkat cells incubated for 24 hrs in presence of Ca2+ and Mg2+ by real-time cell analysis; type: cell-based
[23] = target: Integrin alpha-8/beta-1 (Homo sapiens, UniProt P05556+P53708); assay: Inhibition of recombinant human Integrin alpha8beta1 mediated cellular adhesion expressed in HEK cells incubated for 24 hrs in presence of Ca2+ and Mg2+ by real-time cell analysis; type: cell-based
Sequence of Integrin alpha-8/beta-1 (P05556 21-798 limits assumed): as the sequence (P05556 21-798 limits assumed) above
Sequence of Integrin alpha-8/beta-1 (P53708 39-906 limits assumed): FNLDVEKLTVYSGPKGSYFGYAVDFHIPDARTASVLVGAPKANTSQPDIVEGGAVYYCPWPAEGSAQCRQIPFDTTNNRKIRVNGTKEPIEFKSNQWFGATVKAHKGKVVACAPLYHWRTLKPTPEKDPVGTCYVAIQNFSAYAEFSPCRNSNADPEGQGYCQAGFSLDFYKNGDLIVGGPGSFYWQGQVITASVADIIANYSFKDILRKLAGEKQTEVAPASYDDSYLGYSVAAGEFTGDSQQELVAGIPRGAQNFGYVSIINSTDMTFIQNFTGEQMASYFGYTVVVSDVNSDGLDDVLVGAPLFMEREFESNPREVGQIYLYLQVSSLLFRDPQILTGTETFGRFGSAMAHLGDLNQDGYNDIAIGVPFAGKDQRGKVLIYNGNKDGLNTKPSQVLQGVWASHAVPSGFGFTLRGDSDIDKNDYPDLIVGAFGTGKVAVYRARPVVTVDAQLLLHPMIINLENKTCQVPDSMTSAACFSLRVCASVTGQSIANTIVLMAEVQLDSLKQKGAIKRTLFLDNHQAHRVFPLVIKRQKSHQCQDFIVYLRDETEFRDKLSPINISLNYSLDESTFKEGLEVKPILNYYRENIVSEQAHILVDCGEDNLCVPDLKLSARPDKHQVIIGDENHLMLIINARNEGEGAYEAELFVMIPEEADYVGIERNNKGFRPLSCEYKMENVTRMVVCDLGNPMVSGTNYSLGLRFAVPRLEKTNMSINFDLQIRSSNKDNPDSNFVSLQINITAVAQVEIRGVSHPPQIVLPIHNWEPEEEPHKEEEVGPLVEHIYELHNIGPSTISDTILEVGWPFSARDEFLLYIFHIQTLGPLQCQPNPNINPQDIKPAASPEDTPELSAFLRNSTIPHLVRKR
Sequence of Integrin alpha-8/beta-1 (P53708 907-1063 limits assumed): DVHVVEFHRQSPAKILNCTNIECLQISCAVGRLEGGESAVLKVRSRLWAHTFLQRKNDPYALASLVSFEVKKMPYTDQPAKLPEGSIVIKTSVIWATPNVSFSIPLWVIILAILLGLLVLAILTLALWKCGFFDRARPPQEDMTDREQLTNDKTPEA

[24] = Cmax in Wistar rat at 10 mg/kg,po administration; type: ADME, organism-based; details: in vivo
[25] = target: Integrin alpha-V/beta-8 (Homo sapiens, UniProt P06756+P26012); assay: Inhibition of Integrin alphaVbeta8 in human SNB-19 cells cocultured with TGF-beta expressing Mv1Lu cells assessed as inhibition of integrin alphaVbeta8 mediated TGF-beta transactivation by luciferase assay; type: cell-based
[26] = Bioavailability in Sprague-Dawley rat at 30 mg/kg,sc administration; type: ADME, organism-based; details: in vivo
[27] = target: Integrin alpha-5/beta-1 (Homo sapiens, UniProt P05556+P08648); assay: Inhibition of Integrin alpha5beta1 mediated cellular adhesion in human HCT-116 cells incubated for 24 hrs in presence of Ca2+ and Mg2+ by real-time cell analysis; type: cell-based
Sequence of Integrin alpha-5/beta-1 (P05556 21-798 limits assumed): as the sequence (P05556 21-798 limits assumed) above
Sequence of Integrin alpha-5/beta-1 (P08648 42-894 limits assumed): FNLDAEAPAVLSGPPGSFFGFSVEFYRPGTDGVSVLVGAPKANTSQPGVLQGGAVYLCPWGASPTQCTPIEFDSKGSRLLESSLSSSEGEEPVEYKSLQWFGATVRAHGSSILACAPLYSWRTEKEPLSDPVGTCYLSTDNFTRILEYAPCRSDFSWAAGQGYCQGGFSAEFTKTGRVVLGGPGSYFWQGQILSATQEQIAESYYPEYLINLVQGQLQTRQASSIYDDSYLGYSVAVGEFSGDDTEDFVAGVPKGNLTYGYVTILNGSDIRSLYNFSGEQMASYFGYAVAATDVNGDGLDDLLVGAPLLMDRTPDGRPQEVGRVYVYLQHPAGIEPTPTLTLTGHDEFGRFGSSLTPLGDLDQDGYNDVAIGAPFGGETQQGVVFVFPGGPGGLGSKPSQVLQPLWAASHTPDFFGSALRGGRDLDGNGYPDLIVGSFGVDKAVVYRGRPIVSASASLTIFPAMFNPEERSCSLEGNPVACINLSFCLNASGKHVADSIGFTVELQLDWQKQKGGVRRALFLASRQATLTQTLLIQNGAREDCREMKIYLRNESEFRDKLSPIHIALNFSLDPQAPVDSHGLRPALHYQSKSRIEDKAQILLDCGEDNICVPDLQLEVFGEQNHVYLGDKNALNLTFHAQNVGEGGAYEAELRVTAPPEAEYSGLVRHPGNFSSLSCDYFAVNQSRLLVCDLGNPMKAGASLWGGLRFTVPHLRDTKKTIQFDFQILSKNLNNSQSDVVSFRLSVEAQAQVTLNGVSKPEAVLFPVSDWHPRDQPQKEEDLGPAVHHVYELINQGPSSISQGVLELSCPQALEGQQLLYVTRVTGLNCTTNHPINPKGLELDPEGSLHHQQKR
Sequence of Integrin alpha-5/beta-1 (P08648 895-1049 limits assumed): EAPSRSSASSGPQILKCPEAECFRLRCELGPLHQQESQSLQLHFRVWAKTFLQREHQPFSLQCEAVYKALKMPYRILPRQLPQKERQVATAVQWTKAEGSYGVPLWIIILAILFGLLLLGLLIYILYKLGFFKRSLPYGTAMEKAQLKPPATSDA

[28] = target: Integrin alpha-V/beta-6 (Homo sapiens, UniProt P06756+P18564); assay: Inhibition of human Integrin alphaVbeta6 expressed in SW480 cells cocultured with TGF-beta expressing Mv1Lu cells assessed as inhibition of integrin alphaVbeta6 mediated TGF-beta transactivation by luciferase assay; type: cell-based
[29] = Drug concentration in choline-deficient high-fat diet induced Wistar-Han rat liver at sc administration for 6 weeks from period of week 7 to 12 during high-fat diet treatment; type: ADME, organism-based; details: in vivo, 1008 h
[30] = AUC (0 to infinity) in Wistar-Han rat at 1 mg/kg,iv administration; type: ADME, organism-based; details: in vivo
[31] = Clearance in Wistar-Han rat at 1 mg/kg,iv administration; type: ADME, organism-based; details: in vivo

**Q.** Which results are given for `Cc1ccc(Cl)c(C(=O)N[C@@H](CNC(=O)Cn2c(=O)[nH]c3nc(C)c(F)cc32)C(=O)O)c1F`?
**A.** AUC(0-inf) [1]: 630000 ng·h/mL; half-life [2]: 3.32 h; AUC(0-t) [3]: 44000 ng·h/mL; AUC(0-t) [4]: 4500 ng·h/mL; Drug uptake [5]: Dose-Dependent Effect; Papp B→A at 1 h [6]: 3.2 ×10⁻⁶ cm/s; IC50 [7]: 0.000316 µM; Vd [8]: 0.087 L/kg; IC50 [9]: > 10 µM; AUC(0-t) [10]: 630000 ng·h/mL; half-life [11]: 3.3 h; Papp A→B at 1 h [12]: 3 ×10⁻⁶ cm/s; AUC(0-inf) [13]: 4800 ng·h/mL; Cmax [14]: 66000 ng/mL; Tmax [15]: 4.7 h; Activity [16]: Dose-Dependent Effect; Tmax [17]: 2.8 h; half-life [18]: 5.2 h; IC50 [19]: 0.427 µM; bioavailability [20]: 1.3%; IC50 [21]: 0.0437 µM; IC50 [22]: > 31.6 µM; IC50 [23]: > 31.6 µM; Cmax [24]: 390 ng/mL; IC50 [25]: 9.55 µM; bioavailability [26]: 59%; IC50 [27]: > 31.6 µM; IC50 [28]: > 10 µM; Drug uptake [29]: Dose-Dependent Effect; AUC(0-inf) [30]: 44000 ng·h/mL; clearance [31]: 0.38 mL/min/kg
